These are literature values, as cited in patent publication US20160082159A1, “BALLOON SURFACE COATING” (priority 2013, published 2016).

For this series the following is noted: in humans.

Consider `CC(=O)O[C@H]1C(=O)[C@@]2(C)[C@H]([C@H](OC(=O)c3ccccc3)[C@]3(O)C[C@H](OC(=O)[C@H](O)[C@@H](NC(=O)c4ccccc4)c4ccccc4)C(C)=C1C3(C)C)[C@]1(OC(C)=O)CO[C@@H]1C[C@@H]2O` [paclitaxel], for which the “normal plasma half-life of paclitaxel” value is “approximately 60 min”.
